Experimental data: patent publication EP0139358B1, “N6-substituted diarylalkyl adenosines, processes for their production and pharmaceutical compositions comprising the same” (priority 1983, dated 1985)
Like-named read-outs stand apart in the source and are kept apart here.

What was measured:
Swiss-Webster male mice = assay: Mouse Activity and Screen Test (MAST): inhibition of spontaneous locomotion (LI); assay type: in vivo; conditions: for Inhibition of mouse locomotor activity: one hour prior to testing, vs vehicle
male Swiss-Webster mice = assay: Analgesic evaluation: antiwrithing (AW) test, acetic acid; assay type: in vivo; conditions: Mus musculus, sc, read-out: AW ED50
Procedure: The antiwrithing (AW) test provides preliminary assessment of compounds with potential analgesic activity. The test is performed in male Swiss-Webster mice. Compounds are administered subcutaneously in aqueous 0.2% methylcellulose or other appropriate vehicles in volumes of 10 ml/kg. Dosages represent activity moiety.
Acetic acid (0.6%, 10 ml/kg) is injected intraperitroneally 20 minutes after administration of the adenosine agonist. Writhing movements are counted for five minutes starting seven minutes after the acetic acid injection. Writhing is defined as abdominal constriction and stretching of the body and hind legs with concave arching of the back. […] EDso values are calculated by nonlinear regression analysis.

rat heart = assay: Coronary blood flow (PCS2A): isolated perfused heart; conditions: Rattus norvegicus

Structure (SMILES): OC[C@H]1O[C@@H](n2cnc3c(NCC(c4ccccc4)c4ccccc4)ncnc32)[C@H](O)[C@@H]1O [Example 1, N^6-(2,2-Diphenylethyl)adenosine]
- Inhibition of mouse locomotor activity (Swiss-Webster male mice; 10 mg/kg intraperitoneally): 92%
- Inhibition of mouse locomotor activity (Swiss-Webster male mice; 30 mg/kg intraperitoneally): 93%
- Inhibition of mouse locomotor activity (Swiss-Webster male mice; 100 mg/kg intraperitoneally): 94%
- minimal effective dose (Swiss-Webster male mice; Mus musculus, ip, read-out: MAST LI LAD): 3 mg/kg
- ED50 (male Swiss-Webster mice): 6.9 mg/kg
- activation at 0.001 µM (rat heart; read-out: CF): 7%
- activation at 0.003 µM (rat heart; read-out: CF): 15%
- activation at 0.01 µM (rat heart; read-out: CF): 32%
- activation at 0.1 µM (rat heart; read-out: CF): 43%
- activation at 1 µM (rat heart; read-out: CF): 50%
- EC50 (rat heart; read-out: PCS2A CF ED50): 1000 nM
- EC50 (rat heart; read-out: PCS2A HR ED50): 2000 nM
